The results in this text go back to publication PMC3838804, “Rapid Identification of Aldose Reductase Inhibitory Compounds from Perilla frutescens” (BioMed Research International, 2013).

Test [1] concerns the target rAR (rat lens aldose reductase) (Rattus norvegicus, UniProt P07943). Description: Assay for rAR inhibitory activity (NADPH absorption decrease at 340 nm, DL-glyceraldehyde substrate). Type of test: biochemical. Particulars: for IC50: read-out: IC50 on rAR (isolated compounds); for rAR inhibitory activity (in words): isolated compound.
Description: Crude rAR was prepared as follows. Rat lenses were removed from closed male Sprague-Dawley rats weighing 250–280 g and frozen until required. The rat lens homogenate was prepared according to Hayman and Kinoshita with some modifications [20, 21]. […] The partially purified material was separated into 1.0 mL aliquots and stored at 40°C. rAR activity was assayed spectrophotometrically by measuring the decrease in NADPH absorption at 340 nm over a 4 min period with dl-glyceraldehyde substrate. Each 1.0 mL cuvette contained equal units of the enzyme, 0.10 M sodium phosphate buffer (pH 6.2), and 0.3 mM NADPH, with or without 10 mM substrate and an inhibitor [22, 23].
Another test has as its target T1, rAR (aldose reductase) (Rattus norvegicus, UniProt P07943).
T1 construct: The rat lens homogenate was prepared according to Hayman and Kinoshita with some modifications; from tissue; host or cells: rat lens (male Sprague-Dawley rats)
Description: HPLC microfractionation combined with 96-well enzyme assay for rAR inhibition. Type of test: biochemical. Particulars: HPLC microfractions of EtOAc soluble fraction (10 μL of 10 mg/mL injected), 96-well plate; hit limit 18.49%. The protocol:
An automated fraction collector (Foxy 200; ISCO, Lincoln, NE, USA) coupled with HPLC equipment (Thermo Electron Spectra HPLC system; Thermo Separation Products, San Jose, CA, USA) was used to separate and collect compounds from extracts directly into 96-well plates (Nunc, Roskilde, Denmark) at 0.4 mL/well (Figure 1). […] The mobile phase, consisting of acetonitrile (ACN) and 0.1% aqueous trifluoroacetic acid (TFA), was used at a flow rate of 0.8 mL/min. The gradient elution program was 7.5–26.5% B (0–20 min), 26.5% B (20–30 min), 26.5–36% B (30–40 min), and 36–100% B (40–45 min). Injection volume was 10 μL at sample concentration 10 mg/mL and detection wavelength 280 nm. After collection, all fractions were evaporated to dryness using an EZ-2 plus evaporator (Gene Vac Ltd., Ipswich, UK).
The effect on rAR inhibitory activity (%) was calculated as the change in absorbance in a sample well versus the change in absorbance in a blank well (average, n = 12). Spontaneous hydrolysis was subtracted from the reaction rate. The hit limit was set at 3 standard deviations (SD) from the minimum AR inhibitory activity. Z′-factor, signal-to-background ratio (S/B), and signal-to-noise ratio(S/N) were used to evaluate the quality of the test: Z′ = 1[(3 × SDs + 3 × SDb)/|X s X b|], S/B = X s/X b, and S/N = (X s X b)/(SDs ^2 + SDb ^2)^1/2; X s and SDs are average and standard deviation of the signal, that is, absorption detected at the 8th measurement point in blank wells (n = 12) after adding the enzyme; X b and SDb are average and SD of the background, that is, absorption at the first measurement point in blank wells (n = 12) after adding the enzyme.
Crude rAR was prepared as follows. Rat lenses were removed from […] male Sprague-Dawley rats weighing 250–280 g and frozen until required. The rat lens homogenate was prepared according to Hayman and Kinoshita with some modifications. A partially purified enzyme with a specific activity of 6.5 U/mg was routinely used to test enzyme inhibition. The partially purified material was separated into 1.0 mL aliquots and stored at […]. rAR activity was assayed spectrophotometrically by measuring the decrease in NADPH absorption at 340 nm over a 4 min period with dl-glyceraldehyde substrate. Each 1.0 mL cuvette contained equal units of the enzyme, 0.10 M sodium phosphate buffer (pH 6.2), and 0.3 mM NADPH, with or without 10 mM substrate and an inhibitor [22, 23].

Like-named read-outs stand apart in the source and are kept apart here.

The term IC50 denotes the concentration that inhibits the measured activity by half.

Regarding `COC(=O)[C@@H](Cc1ccc(O)c(O)c1)OC(=O)/C=C/c1ccc(O)c(O)c1` [Compound 6, methyl rosmarinic acid], the IC50 in test [1] was 4.03 µM. The “rAR inhibitory activity in the corresponding wells” value on rAR (aldose reductase) is recorded as 22.94%.

For the compound `O=C(O)c1ccc(O)c(O)c1` [Compound 1, protocatechuic acid], the “rAR inhibitory activity (in words)” value in test [1] is reported as “did not exhibit inhibitory activity”. Also, the “rAR inhibitory activity in the corresponding wells” value on rAR (aldose reductase) came out at 20.46%.

Regarding `O=C(/C=C/c1ccc(O)c(O)c1)O[C@H](Cc1ccc(O)c(O)c1)C(=O)O` [Compound 4, rosmarinic acid], the concentration for half-maximal inhibition (IC50) in test [1] (concentration at 50% inhibition, crude rat lens AR, pH 6.2) was found to be 2.77 µM. The “rAR inhibitory activity in the corresponding wells” value on rAR (aldose reductase) amounted to 53.31%.

Regarding `O=C(/C=C/c1ccc(O)c(O)c1)O[C@@H]1C[C@](O)(C(=O)O)C[C@@H](O)[C@H]1O` [Compound 2, chlorogenic acid], in test [1], the IC50 was 3.16 µM. Moreover, the “rAR inhibitory activity in the corresponding wells” value at rAR (aldose reductase) is 34.50%.

For the compound `O=C(O)/C=C/c1ccc(O)c(O)c1` [Compound 3, caffeic acid], the “rAR inhibitory activity (in words)” value in test [1] was “weak inhibitory activity”. Moreover, at rAR (aldose reductase), the “rAR inhibitory activity in the corresponding wells” value was 21.31%.

As for `O=c1cc(-c2ccc(O)c(O)c2)oc2cc(O)cc(O)c12` [Compound 5, luteolin], the “rAR inhibitory activity in the corresponding wells” value on rAR (aldose reductase) was 29.46%.
